Assay results taken from publication PMC12772150, “PIP2 corrects an endothelial Piezo1 channelopathy” (Proceedings of the National Academy of Sciences of the …, 2025).

Legend:
Piezo1 [1] = target: T1, Piezo1 (Mus musculus, UniProt E2JF22, R2482H); experiment: cell-attached single-channel patch clamp, […] PIP2, no Yoda1 ([…] inhibition); format: cell-based
T1 construct: mutant channel in capillary endothelial cells of Piezo1EC-Mutant mice

Piezo1 [2] = target: T2, Piezo1 (Mus musculus, UniProt E2JF22); experiment: single-channel patch clamp (cell-attached concentration-response with Yoda1; outside-out patches with PIP2 in pipette); format: cell-based
T2 construct: native channel in freshly isolated brain capillary endothelial cells
T2 sequence (E2JF22 whole entry): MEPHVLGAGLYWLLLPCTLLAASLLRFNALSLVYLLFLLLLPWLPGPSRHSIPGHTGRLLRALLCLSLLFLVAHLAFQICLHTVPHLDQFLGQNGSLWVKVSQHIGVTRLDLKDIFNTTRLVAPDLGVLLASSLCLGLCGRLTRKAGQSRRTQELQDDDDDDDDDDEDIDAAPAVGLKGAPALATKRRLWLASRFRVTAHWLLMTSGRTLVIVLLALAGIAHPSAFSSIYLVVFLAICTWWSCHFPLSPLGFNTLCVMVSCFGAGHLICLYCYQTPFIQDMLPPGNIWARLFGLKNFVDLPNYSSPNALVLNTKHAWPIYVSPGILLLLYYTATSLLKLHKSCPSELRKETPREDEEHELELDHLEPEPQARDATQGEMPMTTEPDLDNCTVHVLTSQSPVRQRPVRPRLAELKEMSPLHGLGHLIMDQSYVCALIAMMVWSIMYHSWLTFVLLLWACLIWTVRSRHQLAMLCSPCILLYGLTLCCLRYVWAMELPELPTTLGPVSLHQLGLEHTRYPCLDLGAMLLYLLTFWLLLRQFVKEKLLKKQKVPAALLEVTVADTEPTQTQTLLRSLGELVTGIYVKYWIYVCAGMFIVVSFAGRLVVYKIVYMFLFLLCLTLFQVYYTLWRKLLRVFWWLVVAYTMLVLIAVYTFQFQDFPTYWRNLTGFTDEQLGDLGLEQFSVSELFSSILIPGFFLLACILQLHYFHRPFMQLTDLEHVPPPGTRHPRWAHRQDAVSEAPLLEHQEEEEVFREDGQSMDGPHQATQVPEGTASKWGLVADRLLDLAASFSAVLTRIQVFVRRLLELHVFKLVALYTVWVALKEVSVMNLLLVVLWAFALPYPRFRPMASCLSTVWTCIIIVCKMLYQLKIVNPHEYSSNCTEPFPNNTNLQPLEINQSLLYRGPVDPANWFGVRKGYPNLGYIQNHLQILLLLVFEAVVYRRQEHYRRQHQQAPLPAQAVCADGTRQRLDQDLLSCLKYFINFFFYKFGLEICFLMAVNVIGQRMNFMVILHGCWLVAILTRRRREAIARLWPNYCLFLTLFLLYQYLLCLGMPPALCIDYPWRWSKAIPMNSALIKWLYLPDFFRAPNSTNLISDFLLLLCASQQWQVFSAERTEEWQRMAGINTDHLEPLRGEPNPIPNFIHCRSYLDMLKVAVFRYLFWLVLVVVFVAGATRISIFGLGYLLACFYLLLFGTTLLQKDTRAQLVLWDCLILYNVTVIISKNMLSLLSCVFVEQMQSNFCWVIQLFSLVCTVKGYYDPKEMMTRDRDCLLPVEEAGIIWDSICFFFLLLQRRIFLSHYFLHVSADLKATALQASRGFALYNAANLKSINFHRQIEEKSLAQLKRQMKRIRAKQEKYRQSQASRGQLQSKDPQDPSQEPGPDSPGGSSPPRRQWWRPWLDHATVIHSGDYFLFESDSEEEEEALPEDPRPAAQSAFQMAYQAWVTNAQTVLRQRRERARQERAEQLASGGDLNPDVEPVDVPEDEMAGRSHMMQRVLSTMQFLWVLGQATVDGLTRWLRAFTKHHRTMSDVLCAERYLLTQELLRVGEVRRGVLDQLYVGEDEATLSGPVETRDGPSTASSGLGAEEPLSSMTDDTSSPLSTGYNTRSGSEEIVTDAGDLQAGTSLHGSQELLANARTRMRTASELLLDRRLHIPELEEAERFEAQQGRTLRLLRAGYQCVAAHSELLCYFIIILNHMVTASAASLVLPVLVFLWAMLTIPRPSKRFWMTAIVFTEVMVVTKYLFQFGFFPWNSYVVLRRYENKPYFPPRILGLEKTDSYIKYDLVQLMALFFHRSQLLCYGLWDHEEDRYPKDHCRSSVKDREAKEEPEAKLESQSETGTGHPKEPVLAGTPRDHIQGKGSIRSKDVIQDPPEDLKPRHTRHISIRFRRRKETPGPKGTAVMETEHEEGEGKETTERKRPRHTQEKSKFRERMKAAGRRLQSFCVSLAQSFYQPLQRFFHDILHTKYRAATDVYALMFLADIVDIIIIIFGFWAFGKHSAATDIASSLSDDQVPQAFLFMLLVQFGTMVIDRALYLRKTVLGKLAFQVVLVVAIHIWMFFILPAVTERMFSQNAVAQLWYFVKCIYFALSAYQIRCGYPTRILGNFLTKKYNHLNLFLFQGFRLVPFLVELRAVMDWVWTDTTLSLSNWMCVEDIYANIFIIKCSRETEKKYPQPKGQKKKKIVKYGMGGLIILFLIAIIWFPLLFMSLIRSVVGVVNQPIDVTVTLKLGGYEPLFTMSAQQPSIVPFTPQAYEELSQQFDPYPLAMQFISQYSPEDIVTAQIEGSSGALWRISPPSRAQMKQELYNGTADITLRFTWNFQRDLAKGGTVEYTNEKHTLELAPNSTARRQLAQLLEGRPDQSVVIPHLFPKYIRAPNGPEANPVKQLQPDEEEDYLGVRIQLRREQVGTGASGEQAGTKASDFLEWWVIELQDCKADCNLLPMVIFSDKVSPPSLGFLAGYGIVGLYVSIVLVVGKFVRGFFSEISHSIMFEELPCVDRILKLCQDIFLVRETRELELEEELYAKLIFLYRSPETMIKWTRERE

T1 sequence (E2JF22 whole entry R2482H): as the sequence (E2JF22 whole entry) above, with R2482H counted along it

- inhibition at 10 µM (Piezo1 [1]): 50%
- IC50 (Piezo1 [2]): ~300 nM
SMILES: CCCCCCCCCCCCCCCC(=O)OC[C@H](COP(=O)(O)O[C@@H]1[C@H](O)[C@H](O)[C@@H](OP(=O)(O)O)[C@H](OP(=O)(O)O)[C@H]1O)OC(=O)CCCCCCCCCCCCCCC [diC16-PIP2]
